In patent US10947188B2, “Small molecule ferroptosis inducers” (THE TRUSTEES OF COLUMBIA UNIVERSITY IN THE CITY OF NEW YORK, priority 2016, dated 2021):

What was measured:
HT-1080 = test: Modulatory profiling: Alamar Blue viability, lethal compound cotreated with death modulator (EC50, AUC); format: cell-based; set-up: AUC, modulator HT.3MA / AUC, modulator HT.ALLN / AUC HT.ATA / AUC HT.ActD / AUC HT.BHA / AUC HT.BHT / AUC HT.BocD / AUC HT.CHX / AUC HT.Co2+ / AUC HT.DPQ / AUC HT.EGTA / AUC HT.Lmim / AUC HT.NAD+ / AUC HT.Nec-1 / AUC HT.SP600125 / AUC HT.TLCK / AUC HT.U0126: unit not given beside the values; details: for AUC HT.ATA: HT-1080, modulator ATA; for AUC HT.ActD: HT-1080, modulator ActD; for AUC HT.BHA: HT-1080, modulator BHA; for AUC HT.BHT: HT-1080, modulator BHT; for AUC HT.BocD: HT-1080, modulator BocD; for AUC HT.CHX: HT-1080, modulator CHX; for AUC HT.Co2+: HT-1080, modulator Co2+; for AUC HT.CspA: HT-1080, modulator CspA; for AUC HT.DPQ: HT-1080, modulator DPQ; for AUC HT.EGTA: HT-1080, modulator EGTA; for AUC HT.Gd3+: HT-1080, modulator Gd3+; for AUC HT.LNAME: HT-1080, modulator LNAME; for AUC HT.Lmim: HT-1080, modulator Lmim; for AUC HT.NAD+: HT-1080, modulator NAD+; for AUC HT.NMMA: HT-1080, modulator NMMA; for HT.atoc (AUC) / HT.bCarotene (AUC) / HT.deferox (AUC) / HT.digoxin (AUC) / HT.trolox (AUC) / HT.zVAD (AUC): HT-1080; for HT.atoc (AUC): modulator atoc; for HT.bCarotene (AUC): modulator bCarotene; for HT.deferox (AUC): modulator deferox; for HT.digoxin (AUC): modulator digoxin; for HT.trolox (AUC): modulator trolox; for HT.zVAD (AUC): modulator zVAD; on AUC HT.BHA: reference of the scale not given here; on AUC HT.EGTA: reference of the scale not given here
BJeLR = test: as above; format: cell-based, human; set-up: AUC, modulator BJ.Gd3+ / AUC, modulator BJ.LNAME / AUC, modulator BJ.Lmin / AUC, modulator BJ.3MA / AUC, modulator BJ.ALLN / AUC, modulator BJ.Boc D / AUC, modulator BJ.CHX / AUC, modulator BJ.Co2+ / AUC, modulator BJ.Nec-1 / AUC, modulator BJ.Pepstatin / AUC, modulator BJ.TLCK / AUC, modulator BJ.atoc / AUC, modulator BJ.trolox / AUC, modulator BJ.zVAD: unit not given beside the values; details: BJeLR cells, modulatory profile value (AUC); for AUC, modulator BJ.3MA: lethal compound cotreated with modulator 3MA; for AUC, modulator BJ.ALLN: lethal compound cotreated with modulator ALLN; for AUC, modulator BJ.Boc D: lethal compound cotreated with modulator Boc D; for AUC, modulator BJ.CHX: lethal compound cotreated with modulator CHX; for AUC, modulator BJ.Co2+: lethal compound cotreated with modulator Co2+; for AUC, modulator BJ.DPQ: lethal compound cotreated with modulator DPQ; for AUC, modulator BJ.Gd3+: lethal compound cotreated with modulator Gd3+; for AUC, modulator BJ.LNAME: lethal compound cotreated with modulator LNAME; for AUC, modulator BJ.Lmin/NAD+: lethal compound cotreated with modulator Lmin/NAD+; for AUC, modulator BJ.Lmin: lethal compound cotreated with modulator Lmin; for AUC, modulator BJ.NAD+: lethal compound cotreated with modulator NAD+; for AUC, modulator BJ.NMMA: lethal compound cotreated with modulator NMMA; for AUC, modulator BJ.Nec-1: lethal compound cotreated with modulator Nec-1; for AUC, modulator BJ.Pepstatin: lethal compound cotreated with modulator Pepstatin; for AUC, modulator BJ.TLCK: lethal compound cotreated with modulator TLCK; on AUC, modulator BJ.3MA: reference of the scale not given here; on AUC, modulator BJ.ALLN: reference of the scale not given here; on AUC, modulator BJ.Boc D: reference of the scale not given here; on AUC, modulator BJ.CHX: reference of the scale not given here; on AUC, modulator BJ.Co2+: reference of the scale not given here; on AUC, modulator BJ.DPQ: reference of the scale not given here; on AUC, modulator BJ.Gd3+: reference of the scale not given here; on AUC, modulator BJ.LNAME: reference of the scale not given here; on AUC, modulator BJ.NAD+: reference of the scale not given here; on AUC, modulator BJ.NMMA: reference of the scale not given here; on AUC, modulator BJ.Nec-1: reference of the scale not given here; on AUC, modulator BJ.Pepstatin: reference of the scale not given here; on AUC, modulator BJ.TLCK: reference of the scale not given here

| Compound | AUC HT.ATA (HT-1080) | AUC HT.ActD (HT-1080) | AUC HT.BHA (HT-1080) | AUC HT.BHT (HT-1080) | AUC HT.BocD (HT-1080) | AUC HT.CHX (HT-1080) | AUC HT.Co2+ (HT-1080) | AUC HT.CspA (HT-1080) | AUC HT.DPQ (HT-1080) | AUC HT.EGTA (HT-1080) | AUC HT.Gd3+ (HT-1080) | AUC HT.LNAME (HT-1080) | AUC HT.Lmim (HT-1080) | AUC HT.NAD+ (HT-1080) | AUC HT.NMMA (HT-1080) | HT.atoc (AUC) (HT-1080) | HT.bCarotene (AUC) (HT-1080) | HT.deferox (AUC) (HT-1080) | HT.digoxin (AUC) (HT-1080) | HT.trolox (AUC) (HT-1080) | further results |
| --- | --- | --- | --- | --- | --- | --- | --- | --- | --- | --- | --- | --- | --- | --- | --- | --- | --- | --- | --- | --- | --- |
| CC1(C)CC(=O)C2=C(C1)OC1=C(C(=O)CC(C)(C)C1)C2c1ccc(O)cc1O [CIL62] | 0.02941 | −0.01143 | −0.007393 | −0.1437 | 0.002455 | 0.08707 | 0.03422 | −0.001347 | 0.01017 | 0.04611 | −0.02573 | −0.003569 | 0.008056 | −0.01689 | −0.01754 | 0.08235 | 0.02726 | 0.1061 | −0.02448 | −0.03123 | effect of necrostatin-1 on lethality (HT-1080; 19 μM Nec-1): suppressed by necrostatin-1; HT.zVAD (AUC) (HT-1080): −0.01794; AUC, modulator BJ.3MA (BJeLR): 0.009762; AUC, modulator BJ.ALLN (BJeLR): −0.06265; AUC, modulator BJ.Boc D (BJeLR): −0.008658; AUC, modulator BJ.CHX (BJeLR): 0.5162; AUC, modulator BJ.Co2+ (BJeLR): 0.01574; AUC, modulator BJ.DPQ (BJeLR): −0.005752; AUC, modulator BJ.Gd3+ (BJeLR): 0.002946; AUC, modulator BJ.LNAME (BJeLR): −0.02055; AUC, modulator BJ.Lmin/NAD+ (BJeLR): 0.08736; AUC, modulator BJ.Lmin (BJeLR): 0.01862; AUC, modulator BJ.NAD+ (BJeLR): 0.04149; AUC, modulator BJ.NMMA (BJeLR): −0.05556; AUC, modulator BJ.Nec-1 (BJeLR): 0.1929; AUC, modulator BJ.Pepstatin (BJeLR): 0.06831; AUC, modulator BJ.TLCK (BJeLR): −0.03175 |
| O=c1c(Cl)c(Cl)cnn1-c1ccc(Cl)cc1 [CIL63] | 0.07925 | −0.003254 | 0.01784 | −0.1088 | 0.01855 | 0.07744 | 0.02639 | 0.003063 | −0.02172 | 0.06222 | −0.03164 | 0.04201 | 0.03962 | 0.03316 | −0.002298 | 0.07269 | 0.0644 | 0.08989 | 0.02371 | 0.03222 | HT.zVAD (AUC) (HT-1080): 0.01846; AUC, modulator BJ.3MA (BJeLR): 0.04075; AUC, modulator BJ.ALLN (BJeLR): 0.0544; AUC, modulator BJ.Boc D (BJeLR): −0.01053; AUC, modulator BJ.CHX (BJeLR): 0.09508; AUC, modulator BJ.Co2+ (BJeLR): 0.02177; AUC, modulator BJ.DPQ (BJeLR): 0.0003046; AUC, modulator BJ.Gd3+ (BJeLR): 0.01459; AUC, modulator BJ.LNAME (BJeLR): −0.006812; AUC, modulator BJ.Lmin/NAD+ (BJeLR): 0.07776; AUC, modulator BJ.Lmin (BJeLR): 0.01215; AUC, modulator BJ.NAD+ (BJeLR): 0.02352; AUC, modulator BJ.NMMA (BJeLR): 0.002719; AUC, modulator BJ.Nec-1 (BJeLR): 0.02815; AUC, modulator BJ.Pepstatin (BJeLR): 0.02882; AUC, modulator BJ.TLCK (BJeLR): −0.0437 |
| [O-][N+]1=c2ccc(Nc3ccccc3)cc2=NC12CCCCC2 [CIL66] | 0.02652 | −0.03277 | −0.02085 | −0.1542 | −0.05788 | 0.08144 | −0.06034 | −0.05469 | −0.01105 | 0.03093 | −0.01757 | 0.004035 | 0.01652 | −0.01106 | −0.01421 | 0.05045 | 0.03186 | 0.1299 | −0.05456 | −0.03334 | HT.zVAD (AUC) (HT-1080): 0.01629; AUC, modulator BJ.3MA (BJeLR): 0.04168; AUC, modulator BJ.ALLN (BJeLR): 0.08747; AUC, modulator BJ.Boc D (BJeLR): −0.03146; AUC, modulator BJ.CHX (BJeLR): 0.08369; AUC, modulator BJ.Co2+ (BJeLR): −0.03141; AUC, modulator BJ.DPQ (BJeLR): −0.007284; AUC, modulator BJ.Gd3+ (BJeLR): −0.003838; AUC, modulator BJ.LNAME (BJeLR): 0.02705; AUC, modulator BJ.Lmin/NAD+ (BJeLR): 0.06444; AUC, modulator BJ.Lmin (BJeLR): −0.05195; AUC, modulator BJ.NAD+ (BJeLR): −0.0264; AUC, modulator BJ.NMMA (BJeLR): −0.02558; AUC, modulator BJ.Nec-1 (BJeLR): 0.03694; AUC, modulator BJ.Pepstatin (BJeLR): 0.04469; AUC, modulator BJ.TLCK (BJeLR): −0.07935 |
| O=S1(=O)Nc2c(ccc3cccnc23)-c2ccccc21 [CIL67] | 0.08909 | 0.06498 | −0.03558 | −0.1041 | −0.02378 | 0.1458 | 0.03257 | 0.01638 | −0.01092 | 0.1234 | −0.01945 | −0.007515 | 0.01912 | −0.01795 | −0.01349 | 0.05006 | 0.04657 | 0.1176 | −0.02175 | −0.05687 | HT.zVAD (AUC) (HT-1080): 0.004996; AUC, modulator BJ.3MA (BJeLR): 0.02312; AUC, modulator BJ.ALLN (BJeLR): 0.02149; AUC, modulator BJ.Boc D (BJeLR): 0.00578; AUC, modulator BJ.CHX (BJeLR): 0.3083; AUC, modulator BJ.Co2+ (BJeLR): 0.03708; AUC, modulator BJ.DPQ (BJeLR): −0.005089; AUC, modulator BJ.Gd3+ (BJeLR): 0.0143; AUC, modulator BJ.LNAME (BJeLR): 0.01177; AUC, modulator BJ.Lmin/NAD+ (BJeLR): 0.1599; AUC, modulator BJ.Lmin (BJeLR): −0.08787; AUC, modulator BJ.NAD+ (BJeLR): −0.07272; AUC, modulator BJ.NMMA (BJeLR): −0.01601; AUC, modulator BJ.Nec-1 (BJeLR): −0.02018; AUC, modulator BJ.Pepstatin (BJeLR): 0.08703; AUC, modulator BJ.TLCK (BJeLR): 0.06141 |
